Laboratory results published in patent US20070020196A1, “Inhalant formulation containing sulfoalkyl ether cyclodextrin and corticosteroid prepared from a unit dose suspension” (priority 2003, published 2007).

How the values were obtained:
[1] = Solubility of selected steroids enhanced by cyclodextrins (phase solubility); details: thermodynamic from solid
[2] = Molar ratio SAE-CD:corticosteroid at saturated solubility (phase solubility binding study); format: physicochemical
[3] = Stability of budesonide R- and S-isomers with and without SBE7-β-CD (Example 13); format: physicochemical
Method: The inventors have also discovered that SAE-CD is capable of stabilizing the isomers of budesonide to different extents. A study to determine if SBE7-β-CD stabilized budesonide solutions and if it preferentially stabilized one isomer was conducted according to Example 13. FIG. 11 is a semi-log plot of the % of initial concentration at each time point for the samples stored at 60 ° C. Loss of budesonide was first order at each temperature.
Solutions of budesonide with and without SBE7-β-CD were prepared at two different pHs (4 and 6) and stored at 2 different temperatures (60° C. and 80° C.). Citrate buffers (50 mM) at each pH value were prepared by mixing differing portions of 50 mM citric acid and 50 mM sodium citrate (tribasic, dihydrate) solutions. To achieve a concentration of budesonide in the buffers without SBE7-β-CD sufficient for accurate measurement, the budesonide was dissolved first in 100% ethyl alcohol. An aliquot of the ethanol/budesonide solution was then added drop-wise with stirring to each buffer solution. The theoretical budesonide concentration was 100 μg/mL with a final ethanolic content of 5% in each buffer. All solution preps and procedures involving budesonide were done in a darkened room under red light. After shaking solutions for 24 hours, both buffer solutions were filtered through Millipore Millex-GV 0.22 μm syringe filters to remove any solid that had precipitated (no significant amounts observed) from the solutions. The final budesonide concentration was about 50 μg/mL. Both the pH 4 and 6 solutions were split in two, and solid SBE7-β-CD was added to one of the portions to create solutions with and without 1% w/v SBE7-β-CD at each pH. Each solution was aliquoted into individual amber vials. They were then placed in ovens at 60° C. and 80° C. Sample vials were removed from the ovens and analyzed by HPLC at 0, 96, 164, and 288 hours. The HPLC assay conditions are summarized below.

[4] = aqueous cyclodextrin solution, aqueous with cosolvent or surfactant or cyclodextrin, Solubility of steroid, (SBE)6.1 γ-CD 0.04 M
[5] = aqueous cyclodextrin solution, aqueous with cosolvent or surfactant or cyclodextrin, Solubility of steroid, (SBE)6.1 γ-CD 0.08 M
[6] = aqueous cyclodextrin solution, aqueous with cosolvent or surfactant or cyclodextrin, Solubility of steroid, (SBE)6.7 β-CD 0.0465 M
[7] = aqueous cyclodextrin solution, aqueous with cosolvent or surfactant or cyclodextrin, Solubility of steroid, (SBE)6.7 β-CD 0.0950 M
[8] = aqueous cyclodextrin solution, aqueous with cosolvent or surfactant or cyclodextrin, Solubility of steroid, γ-CD 0.035 M
[9] = aqueous cyclodextrin solution, aqueous with cosolvent or surfactant or cyclodextrin, Solubility of steroid, γ-CD 0.1 M
[10] = aqueous cyclodextrin solution, aqueous with cosolvent or surfactant or cyclodextrin, [Steroid] solubility, (SBE)6.1 γ-CD (0.04 M)
[11] = aqueous cyclodextrin solution, aqueous with cosolvent or surfactant or cyclodextrin, [Steroid] solubility, Captisol (0.04 M)
[12] = water, Solubility of steroid, H2O, no CD
[13] = water, [Steroid] Intrinsic Solubility (in H2O), in H2O
[14] = aqueous cyclodextrin solution, aqueous with cosolvent or surfactant or cyclodextrin, Solubility of steroid, (SBE)5.2 γ-CD 0.1 M
[15] = aqueous cyclodextrin solution, aqueous with cosolvent or surfactant or cyclodextrin, Solubility of steroid, (SBE)7 α-CD 0.04 M
[16] = aqueous cyclodextrin solution, aqueous with cosolvent or surfactant or cyclodextrin, Solubility of steroid, (SBE)7 α-CD 0.08 M
[17] = aqueous cyclodextrin solution, aqueous with cosolvent or surfactant or cyclodextrin, Solubility of steroid, (SBE)9.7 γ-CD […]
[18] = aqueous cyclodextrin solution, aqueous with cosolvent or surfactant or cyclodextrin, Solubility of steroid, (SPE)5.4 γ-CD 0.08 M
[19] = aqueous cyclodextrin solution, aqueous with cosolvent or surfactant or cyclodextrin, Solubility of steroid, (SPE)7 β-CD 0.04 M
[20] = aqueous cyclodextrin solution, aqueous with cosolvent or surfactant or cyclodextrin, Solubility of steroid, (SPE)7 β-CD 0.08 M

| Structure (SMILES) | solubility [1, 4] | solubility [1, 5] | solubility [1, 6] | solubility [1, 7] | solubility [1, 8] | solubility [1, 9] | solubility [1, 10] | solubility [1, 11] | solubility [1, 12] | solubility [1, 13] | Approximate Molar Ratio at Saturated Solubility of Corticosteroid (SAE-CD: corticosteroid) ([2]; SAE-β-CD) | solubility [1, 14] | solubility [1, 15] | solubility [1, 16] | solubility [1, 17] | solubility [1, 18] | solubility [1, 19] | solubility [1, 20] | Approximate Molar Ratio at Saturated Solubility of Corticosteroid (SAE-CD: corticosteroid) ([2]; SAE-α-CD) | other results |
| --- | --- | --- | --- | --- | --- | --- | --- | --- | --- | --- | --- | --- | --- | --- | --- | --- | --- | --- | --- | --- |
| CC1(C)O[C@@H]2C[C@H]3[C@@H]4CCC5=CC(=O)C=C[C@]5(C)[C@@]4(F)[C@@H](O)C[C@]3(C)[C@]2(C(=O)CO)O1 [Triamcinolone acetonide, triamcinolone acetonide] | 10600 µM | 23900 µM | 4570 µM | 10200 µM | 1980 µM | 1390 µM | 10600 µM | 4570 µM | 35.6 µM | 35.6 µM | ~9 |  |  |  |  |  |  |  |  |  |
| CCC[C@H]1O[C@@H]2C[C@H]3[C@@H]4CCC5=CC(=O)C=C[C@]5(C)[C@H]4[C@@H](O)C[C@]3(C)[C@]2(C(=O)CO)O1 (single isomer, unassigned) [S-isomer] |  |  |  |  |  |  |  |  |  |  |  |  |  |  |  |  |  |  |  | With/without CAPTISOL ratio of rate constants ([3]; pH 4, 60° C.): 0.323; With/without CAPTISOL ratio of rate constants ([3]; pH 4, 80° C.): 0.491; Pseudo 1st Order Rate constant ([3]; pH 4 no CAPTISOL, 60° C.): 0.0037 h⁻¹; Pseudo 1st Order Rate constant ([3]; pH 4 no CAPTISOL, 80° C.): 0.00131 h⁻¹; Pseudo 1st Order Rate constant ([3]; pH 4 w/ CAPTISOL, 60° C.): 0.00012 h⁻¹; Pseudo 1st Order Rate constant ([3]; pH 4 w/ CAPTISOL, 80° C.): 0.000644 h⁻¹; With/without CAPTISOL ratio of rate constants ([3]; pH 6, 60° C.): 0.193; With/without CAPTISOL ratio of rate constants ([3]; pH 6, 80° C.): 0.384; Pseudo 1st Order Rate constant ([3]; pH 6 no CAPTISOL, 60° C.): 0.001872 h⁻¹; Pseudo 1st Order Rate constant ([3]; pH 6 no CAPTISOL, 80° C.): 0.00661 h⁻¹; Pseudo 1st Order Rate constant ([3]; pH 6 w/ CAPTISOL, 60° C.): 0.000361 h⁻¹; Pseudo 1st Order Rate constant ([3]; pH 6 w/ CAPTISOL, 80° C.): 0.00254 h⁻¹ |
| CCC(=O)O[C@]1(C(=O)SCF)[C@H](C)C[C@H]2[C@@H]3C[C@H](F)C4=CC(=O)C=C[C@]4(C)[C@@]3(F)[C@@H](O)C[C@@]21C [Fluticasone propionate, fluticasone propionate] | 518 µM | 1210 µM | 54.1 µM | 79.9 µM | 735 µM | 221 µM | 518 µM | 54.1 µM | 3.9 µM | 3.9 µM | ~797 | 2150 µM | 83.7 µM | 114 µM | 1030 µM | 1400 µM | 10.5 µM | 21.2 µM | ~501 | solubility ([1]; aqueous cyclodextrin solution, aqueous with cosolvent or surfactant or cyclodextrin, Solubility of steroid, (SBE)2.4 β-CD 0.04 M): 17 µM; solubility ([1]; aqueous cyclodextrin solution, aqueous with cosolvent or surfactant or cyclodextrin, Solubility of steroid, (SBE)2.4 β-CD 0.08 M): 24.6 µM; solubility ([1]; aqueous cyclodextrin solution, aqueous with cosolvent or surfactant or cyclodextrin, Solubility of steroid, (SBE)5.2 γ-CD 0.04 M): 791 µM; solubility ([1]; aqueous cyclodextrin solution, aqueous with cosolvent or surfactant or cyclodextrin, Solubility of steroid, (SBE)9.7 γ-CD 0.04 M): 545 µM; solubility ([1]; aqueous cyclodextrin solution, aqueous with cosolvent or surfactant or cyclodextrin, Solubility of steroid, (SPE)5.4 γ-CD 0.04 M): 717 µM; Approximate Molar Ratio at Saturated Solubility of Corticosteroid (SAE-CD: corticosteroid) ([2]; SAE-γ-CD): ~51 |
| C[C@@H]1C[C@H]2[C@@H]3CCC4=CC(=O)C=C[C@]4(C)[C@@]3(Cl)[C@@H](O)C[C@]2(C)[C@@]1(O)C(=O)CCl [Mometasone, mometasone] | 8410 µM | 14200 µM | 1220 µM | 2260 µM | 27.1 µM | 0.9 µM |  |  |  |  | ~33 | 8890 µM | 550 µM | 1170 µM | 8900 µM | 14700 µM | 1220 µM | 2230 µM | ~73 | solubility ([1]; aqueous cyclodextrin solution, aqueous with cosolvent or surfactant or cyclodextrin, Solubility of steroid, α-CD 0.04 M): 84 µM; solubility ([1]; aqueous cyclodextrin solution, aqueous with cosolvent or surfactant or cyclodextrin, Solubility of steroid, α-CD 0.08 M): 285 µM; solubility ([1]; aqueous cyclodextrin solution, aqueous with cosolvent or surfactant or cyclodextrin, Solubility of steroid, β-CD 0.015M): 129 µM |
